The values below come from patent US11931404B2, “Use of ultrarapid acting insulin” (MannKind Corporation, priority 2014, dated 2024).

Experiment [1] concerns subjects with type 1 diabetes. The experiment can be described thus: 52-week randomized controlled clinical trial, basal insulin + prandial TI Inhalation Powder versus basal insulin + SC insulin aspart. The experiment is classed as in vivo, human. The settings on record: with basal insulin glargine. The text has this:
This was a prospective, multi-country, multicenter, open label, randomized, controlled clinical trial comparing glycemic control in subjects with type 1 diabetes receiving basal insulin and prandial insulin-FDKP (TI) Inhalation Powder (TI Inhalation Powder group) with subjects receiving basal insulin and SC rapid-acting insulin aspart (comparator group). This study included a 52-week treatment phase and a 4-week follow- up phase. During the 4-week follow-up phase, pulmonary function and select clinical laboratory assessments were scheduled.
The study began with enrollment at Week−3. Subjects received a complete battery of safety and eligibility assessments, including HbA1c and fasting plasma glucose (FPG).
At Week−1, subjects were randomized to one of the following 2 treatments: Basal insulin+prandial TI Inhalation Powder Basal insulin+prandial SC rapid-acting insulin
At Week-1, subjects again completed the first three components of the Insulin Treatment Questionnaire (ITQ) for the purpose of assessing test-retest reliability only). After completing the questionnaire, subjects randomized to the TI Inhalation Powder group were trained on the MEDTONE® Inhaler using TECHNOSPHERE®/insulin (insulin-FDKP) inhalation powder; subjects in the comparator group were trained in the use of the NOVOLOG® pens; all subjects were trained in administration of LANTUS®. Additionally, all subjects were trained on a blood glucose monitoring (HBGM) meter provided at the beginning of the trial and diary and received diabetes education. Any training was repeated at Week 0, if needed.
At the beginning of the treatment phase, subjects had several titration/dose evaluation visits to adjust insulin therapy. Titration visits occurred once a week for the first 4 weeks. During Weeks 4 through 10, there were three telephone “visits” (at Week 6, Week 8, and Week 10) to titrate dose, if necessary. However, dose titration was allowed throughout the trial.
All subjects completed a 7-point blood glucose profile on any 3 days during the week immediately preceding each visit from Week 0 to Week 52. The 7 time points included samples from before breakfast and 2 hours after breakfast, before the mid-day meal and 2 hours after the mid-day meal, before the evening meal and 2 hours after the evening meal and at bedtime (7 time points a day, over 3 days). These blood glucose (BG) values were recorded in the HBGM diary that was collected at clinic visits. […]
A meal challenge test was performed at Week 4 (during dose titration), Week 26, and Week 52. […] Blood glucose (BG) was also measured using HBGM glucose meters to aid the Investigator in treatment decisions and values were obtained at −30, 0, 60, and 120 minutes during the meal challenge. […]

For experiment [2] the following is noted: manufacturer's prescribing information (Mar. 2007 revision); cited from earlier work.

Take insulin aspart: the “mean FPG at the end of the treatment period” value in experiment [1] (52 weeks) is on record as 161.3 (SD 68.2) mg/dL. Moreover, the “average body weight gain over the 52-week treatment period” value in experiment [1] came to 1.4 kg. Besides, in experiment [1] (baseline 8.41 (SD 0.92) TI arm, 8.48 (SD 0.97) insulin aspart arm), the “HbA1c at Week 14” value is 8.07 (SD 1.09) %. Moreover, the “mean decrease in fasting plasma glucose (FPG) over the 52-week treatment period” value in experiment [1] (baseline 187.6 (SD 85.1) TI group, 180.8 (SD 86.9) comparator group) is reported as 23.4 (SD 103.1) mg/dL.
For the substance insulin glargine, the “period of relatively constant glucose lowering activity” value in experiment [2] was 24 h.
